According to ChEMBL document CHEMBL1151886, “Synthesis and SAR of hydroxyethylamine based phenylcarboxyamides as inhibitors of BACE” (Bioorg Med Chem Lett, 2009):
One block for each compound: values may come before it.

Key:
Beta-secretase 1 [1] = biological target: T1, Beta-secretase 1 (Homo sapiens, UniProt P56817); assay: Binding affinity to BACE assessed as displacement of [3H]BMS-599240
Beta-secretase 1 [2] = biological target: T1, Beta-secretase 1; assay: Inhibition of BACE1 in human HEK293 cells overexpressing APP with Swedish mutation assessed as inhibition of amyloid beta 40 production; format: cell-based

T1 sequence (P56817 whole entry): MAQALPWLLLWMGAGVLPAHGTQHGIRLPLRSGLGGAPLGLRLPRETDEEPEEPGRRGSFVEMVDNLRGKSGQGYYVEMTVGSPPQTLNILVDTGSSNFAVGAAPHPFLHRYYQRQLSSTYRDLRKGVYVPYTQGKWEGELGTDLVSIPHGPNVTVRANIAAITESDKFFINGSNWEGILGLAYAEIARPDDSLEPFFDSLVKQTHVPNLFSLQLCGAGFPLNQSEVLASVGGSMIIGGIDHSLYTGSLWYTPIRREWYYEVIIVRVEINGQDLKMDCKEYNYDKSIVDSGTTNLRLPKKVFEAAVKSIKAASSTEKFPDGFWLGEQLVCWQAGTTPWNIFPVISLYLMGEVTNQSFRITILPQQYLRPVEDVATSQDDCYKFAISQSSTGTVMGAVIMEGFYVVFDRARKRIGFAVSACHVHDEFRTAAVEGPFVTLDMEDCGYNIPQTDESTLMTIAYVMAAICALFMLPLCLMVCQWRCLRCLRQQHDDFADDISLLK

SMILES: COc1cccc(CNC[C@@H](O)[C@H](Cc2cc(F)cc(F)c2)NC(=O)c2cc(C(C)=O)cc(C(=O)N[C@H](C)c3ccccc3)c2)c1
IC50 (Beta-secretase 1 [1]; read-out: IC50): 20 nM
IC50 (Beta-secretase 1 [2]; read-out: IC50): 73 nM

SMILES: CCCN(CCC)C(=O)c1cc(C(=O)N[C@@H](Cc2cc(F)cc(F)c2)[C@H](O)CNCc2cccc(OC)c2)cc(C(C)NC(C)=O)c1 (some centres undefined)
IC50 (Beta-secretase 1 [1]; read-out: IC50): 20 nM
IC50 (Beta-secretase 1 [2]; read-out: IC50): 45 nM

SMILES: COc1cccc(CNC[C@@H](O)[C@H](Cc2cc(F)cc(F)c2)NC(=O)c2cc(/C(C)=N/OCC(C)C)cc(N(c3ccccc3)S(C)(=O)=O)c2)c1
IC50 (Beta-secretase 1 [1]; read-out: IC50): 242 nM
IC50 (Beta-secretase 1 [2]; hek293): Not Active

SMILES: CCCN(CCC)C(=O)c1cc(C(=O)N[C@@H](Cc2cc(F)cc(F)c2)[C@H](O)CNCc2cccc(OC)c2)cc(/C(C)=N\OCc2ccccc2)c1
IC50 (Beta-secretase 1 [1]; read-out: IC50): 67 nM
IC50 (Beta-secretase 1 [2]; read-out: IC50): 534 nM

SMILES: CCCN(CCC)C(=O)c1cc(C(=O)N[C@@H](Cc2cc(F)cc(F)c2)[C@H](O)CNCc2cccc(OC)c2)cc(/C(C)=N\O)c1
IC50 (Beta-secretase 1 [1]; read-out: IC50): 3 nM
IC50 (Beta-secretase 1 [2]; read-out: IC50): 27 nM

SMILES: COc1cccc(CNC[C@@H](O)[C@H](Cc2cc(F)cc(F)c2)NC(=O)c2cccc(C(=O)N[C@H](C)c3ccccc3)c2)c1
IC50 (Beta-secretase 1 [1]; read-out: IC50): 89 nM
IC50 (Beta-secretase 1 [2]; read-out: IC50): 198 nM

SMILES: C=CCO/N=C(/C)c1cc(C(=O)N[C@@H](Cc2cc(F)cc(F)c2)[C@H](O)CNCc2cccc(OC)c2)cc(C(=O)N(CCC)CCC)c1
IC50 (Beta-secretase 1 [1]; read-out: IC50): 10 nM
IC50 (Beta-secretase 1 [2]; read-out: IC50): 120 nM

SMILES: COc1cccc(CNC[C@@H](O)[C@H](Cc2cc(F)cc(F)c2)NC(=O)c2cc(C(C)=O)cc(C(=O)NC(C)c3ccc(F)cc3)c2)c1 (some centres undefined)
IC50 (Beta-secretase 1 [1]; read-out: IC50): 51 nM
IC50 (Beta-secretase 1 [2]; read-out: IC50): 91 nM

SMILES: COc1cccc(CNC[C@@H](O)[C@H](Cc2cc(F)cc(F)c2)NC(=O)c2cc(C(C)O)cc(N(c3ccccc3)S(C)(=O)=O)c2)c1 (some centres undefined)
IC50 (Beta-secretase 1 [1]): Not Active
IC50 (Beta-secretase 1 [2]; hek293): Not Active

SMILES: CCCN(CCC)C(=O)c1cccc(C(=O)N[C@@H](Cc2cc(F)cc(F)c2)[C@H](O)CNCc2cccc(OC)c2)c1
IC50 (Beta-secretase 1 [1]; read-out: IC50): 31 nM
IC50 (Beta-secretase 1 [2]; read-out: IC50): 80 nM

SMILES: C=CCO/N=C(/C)c1cc(C(=O)N[C@@H](Cc2cc(F)cc(F)c2)[C@H](O)CNCc2cccc(OC)c2)cc(C(=O)N[C@H](C)c2ccccc2)c1
IC50 (Beta-secretase 1 [1]; read-out: IC50): 86 nM
IC50 (Beta-secretase 1 [2]; read-out: IC50): 500 nM

SMILES: COc1cccc(CNC[C@@H](O)[C@H](Cc2cc(F)cc(F)c2)NC(=O)c2cc(C(=O)N[C@H](C)c3ccccc3)cc(C(C)O)c2)c1 (some centres undefined)
IC50 (Beta-secretase 1 [1]; read-out: IC50): 29 nM
IC50 (Beta-secretase 1 [2]; read-out: IC50): 92 nM

SMILES: COc1cccc(CNC[C@@H](O)[C@H](Cc2cc(F)cc(F)c2)NC(=O)c2cccc(C(=O)NC(C)c3ccc(F)cc3)c2)c1 (some centres undefined)
IC50 (Beta-secretase 1 [1]; read-out: IC50): 166 nM
IC50 (Beta-secretase 1 [2]; read-out: IC50): 266 nM

SMILES: CO/N=C(/C)c1cc(C(=O)N[C@@H](Cc2cc(F)cc(F)c2)[C@H](O)CNCc2cccc(OC)c2)cc(C(=O)N[C@H](C)c2ccccc2)c1
IC50 (Beta-secretase 1 [1]; read-out: IC50): 32 nM
IC50 (Beta-secretase 1 [2]; read-out: IC50): 82 nM

More lines, now with the values ahead:

IC50 (Beta-secretase 1 [1]; read-out: IC50): 4 nM
IC50 (Beta-secretase 1 [2]; read-out: IC50): 19 nM
SMILES: CCCN(CCC)C(=O)c1cc(C(C)=O)cc(C(=O)N[C@@H](Cc2cc(F)cc(F)c2)[C@H](O)CNCc2cccc(OC)c2)c1

IC50 (Beta-secretase 1 [1]; read-out: IC50): 10 nM
IC50 (Beta-secretase 1 [2]; read-out: IC50): 53 nM
SMILES: CCCN(CCC)C(=O)c1cc(CCO)cc(C(=O)N[C@@H](Cc2cc(F)cc(F)c2)[C@H](O)CNCc2cccc(OC)c2)c1

IC50 (Beta-secretase 1 [1]; read-out: IC50): 2 nM
IC50 (Beta-secretase 1 [2]; read-out: IC50): 12 nM
SMILES: CCCN(CCC)C(=O)c1cc(C(=O)N[C@@H](Cc2cc(F)cc(F)c2)[C@H](O)CNCc2cccc(OC)c2)cc(C(C)O)c1 (some centres undefined)

IC50 (Beta-secretase 1 [1]; read-out: IC50): > 2000 nM
IC50 (Beta-secretase 1 [2]; hek293): Not Active
SMILES: CCCN(CCC)C(=O)c1cc(CC(COC)OC)cc(C(=O)N[C@@H](Cc2cc(F)cc(F)c2)[C@H](O)CNCc2cccc(OC)c2)c1 (some centres undefined)

IC50 (Beta-secretase 1 [1]; read-out: IC50): 55 nM
IC50 (Beta-secretase 1 [2]; read-out: IC50): 367 nM
SMILES: CCCN(CCC)C(=O)c1cc(C(=O)N[C@@H](Cc2cc(F)cc(F)c2)[C@H](O)CNCc2cccc(OC)c2)cc(/C(C)=N\OCC(C)C)c1

IC50 (Beta-secretase 1 [1]; read-out: IC50): 16 nM
IC50 (Beta-secretase 1 [2]; read-out: IC50): 34 nM
SMILES: CCCN(CCC)C(=O)c1cc(CC(C)O)cc(C(=O)N[C@@H](Cc2cc(F)cc(F)c2)[C@H](O)CNCc2cccc(OC)c2)c1 (some centres undefined)

IC50 (Beta-secretase 1 [1]; read-out: IC50): 123 nM
IC50 (Beta-secretase 1 [2]; read-out: IC50): 640 nM
SMILES: CCCN(CCC)C(=O)c1cc(C(=O)N[C@@H](Cc2cc(F)cc(F)c2)[C@H](O)CNCc2cccc(OC)c2)cc(C(C)N)c1 (some centres undefined)

IC50 (Beta-secretase 1 [1]; read-out: IC50): 1 nM
IC50 (Beta-secretase 1 [2]; read-out: IC50): 42 nM
SMILES: CCCN(CCC)C(=O)c1cc(C(=O)N[C@@H](Cc2cc(F)cc(F)c2)[C@H](O)CNCc2cccc(OC)c2)cc(/C(C)=N\OC)c1
